In ChEMBL document CHEMBL4196200 (J Med Chem, 2018):
≈ marks a conversion by molar mass, not a printed value. One block for each compound: values may come before it. Numbered stars: 1 amine (or outer) side, 2 acyl side, 3 side chain; on linkers, the order of the positions; unused ones are H or OH. Bridge positions count the residues as written; N and C are the ends. Peptide text beside a SMILES is read from it. X1 = O=C(CCC[*:2])[*:1]

Legend:
Vasopressin V1b receptor [1] = target: T1, Vasopressin V1b receptor (Homo sapiens, UniProt P47901); experiment: Binding affinity to V1B receptor (unknown origin)
T1 sequence (P47901 whole entry): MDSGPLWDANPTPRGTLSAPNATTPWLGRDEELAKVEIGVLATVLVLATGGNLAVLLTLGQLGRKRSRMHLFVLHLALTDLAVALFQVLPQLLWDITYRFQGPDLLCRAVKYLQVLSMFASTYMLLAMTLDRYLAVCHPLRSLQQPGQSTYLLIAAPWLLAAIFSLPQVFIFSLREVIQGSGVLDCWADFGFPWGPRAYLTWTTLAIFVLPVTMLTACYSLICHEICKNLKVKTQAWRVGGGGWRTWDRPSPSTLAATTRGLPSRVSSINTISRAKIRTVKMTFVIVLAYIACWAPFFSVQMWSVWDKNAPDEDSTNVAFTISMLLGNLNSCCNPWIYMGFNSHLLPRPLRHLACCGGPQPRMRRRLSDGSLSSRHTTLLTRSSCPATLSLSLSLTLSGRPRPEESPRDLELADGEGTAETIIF

Vasopressin V2 receptor [2] = target: T2, Vasopressin V2 receptor (Homo sapiens, UniProt P30518); experiment: Binding affinity to V2 receptor (unknown origin)
Vasopressin V2 receptor [3] = target: T2, Vasopressin V2 receptor; experiment: Displacement of DY647 from SNAP-tagged V2 receptor (unknown origin) expressed in HEK293 cells by TR-FRET assay; format: cell-based
[4] = target: T3, Oxytocin receptor (Homo sapiens) (UniProt P30559); experiment: Agonist activity at human OTR expressed in HEK cells assessed as increase in intracellular calcium flux incubated for 45 mins by Indo1-AM dye based fluorescence assay relative to OT; format: functional, cell-based
T3 sequence (whole entry): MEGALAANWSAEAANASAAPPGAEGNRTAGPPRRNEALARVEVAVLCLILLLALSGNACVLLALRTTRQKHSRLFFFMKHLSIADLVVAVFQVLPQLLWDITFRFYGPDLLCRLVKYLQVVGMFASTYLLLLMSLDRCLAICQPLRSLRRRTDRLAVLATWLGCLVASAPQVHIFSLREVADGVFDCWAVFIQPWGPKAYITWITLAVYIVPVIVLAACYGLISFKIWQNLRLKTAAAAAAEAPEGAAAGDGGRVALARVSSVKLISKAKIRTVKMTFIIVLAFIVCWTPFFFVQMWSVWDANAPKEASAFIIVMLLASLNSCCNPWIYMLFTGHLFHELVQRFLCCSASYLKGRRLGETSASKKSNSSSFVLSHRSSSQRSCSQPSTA

[5] = target: T3, Oxytocin receptor (Homo sapiens); experiment: Antagonist activity at human OTR expressed in HEK cells assessed as inhibition of OT-induced intracellular calcium flux at 1 uM incubated for 45 mins by Indo1-AM dye based fluorescence assay relative to OT; format: functional, cell-based
[6] = Thermodynamic solubility in pH 7.4 buffer; format: physicochemical; details: read-out: Therm_solubility
[7] = target: T3, Oxytocin receptor (Homo sapiens); experiment: Agonist activity at human OTR receptor expressed in HEK293FT cells assessed as stimulation of calcium release by Aequorin based assay relative to OT; format: functional, cell-based
Oxytocin receptor [8] = target: T4, Oxytocin receptor (Mus musculus, UniProt P97926); experiment: Agonist activity at mouse OTR receptor expressed in HEK293FT cells assessed as stimulation of calcium release by Aequorin based assay; format: functional, cell-based
T4 sequence (P97926 whole entry): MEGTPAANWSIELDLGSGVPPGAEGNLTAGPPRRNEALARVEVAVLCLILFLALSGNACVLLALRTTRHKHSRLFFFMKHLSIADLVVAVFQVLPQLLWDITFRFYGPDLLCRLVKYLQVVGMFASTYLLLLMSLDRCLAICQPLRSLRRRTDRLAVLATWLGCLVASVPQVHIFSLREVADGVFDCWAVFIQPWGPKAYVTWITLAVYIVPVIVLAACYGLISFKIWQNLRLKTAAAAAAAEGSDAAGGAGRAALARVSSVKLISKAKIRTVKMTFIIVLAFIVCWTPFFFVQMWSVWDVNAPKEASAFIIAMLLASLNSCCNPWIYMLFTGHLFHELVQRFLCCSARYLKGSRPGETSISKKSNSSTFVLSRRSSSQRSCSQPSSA

[9] = target: T5, Oxytocin receptor (Mus musculus) (UniProt P97926); experiment: Agonist activity at mouse OTR receptor expressed in HEK293FT cells assessed as stimulation of calcium release by Aequorin based assay relative to OT; format: functional, cell-based
T5 sequence (whole entry): T4 sequence (P97926 whole entry)

Vasopressin V2 receptor [10] = target: T2, Vasopressin V2 receptor; experiment: Agonist activity at human V2 receptor expressed in HEK293FT cells assessed as stimulation of calcium release by Aequorin based assay; format: functional, cell-based
[11] = target: T3, Oxytocin receptor (Homo sapiens); experiment: Agonist activity at human OTR receptor expressed in HEK293FT cells incubated for 30 mins by beta-arrestin recruitment assay relative to OT; format: functional, cell-based
[12] = target: T3, Oxytocin receptor (Homo sapiens); experiment: Agonist activity at recombinant human OTR expressed in CHO-DUKX-A2 cells assessed as stimulation of intracellular calcium concentration by calcium 3 dye based FLIPR assay relative to OT; format: functional, cell-based
Vasopressin V1a receptor [13] = target: T6, Vasopressin V1a receptor (Homo sapiens, UniProt P37288); experiment: Displacement of DY647 from SNAP-tagged V1A receptor (unknown origin) expressed in HEK293 cells by TR-FRET assay; format: cell-based
Target sequence in this assay (P37288 whole entry): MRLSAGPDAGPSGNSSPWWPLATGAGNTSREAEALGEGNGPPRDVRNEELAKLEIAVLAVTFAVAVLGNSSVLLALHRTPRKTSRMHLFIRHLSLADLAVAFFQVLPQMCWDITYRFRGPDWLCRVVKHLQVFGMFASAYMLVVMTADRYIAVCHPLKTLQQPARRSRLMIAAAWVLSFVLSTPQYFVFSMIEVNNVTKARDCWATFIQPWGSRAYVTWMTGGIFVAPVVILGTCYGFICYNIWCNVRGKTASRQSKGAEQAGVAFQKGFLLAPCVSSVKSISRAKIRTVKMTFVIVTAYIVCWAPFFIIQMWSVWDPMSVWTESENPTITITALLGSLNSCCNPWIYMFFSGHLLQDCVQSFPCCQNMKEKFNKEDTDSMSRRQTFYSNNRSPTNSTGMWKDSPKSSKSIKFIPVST

Vasopressin V1a receptor [14] = target: T6, Vasopressin V1a receptor; experiment: Agonist activity at human V1A receptor expressed in HEK cells assessed as increase in intracellular calcium flux at 1 uM incubated for 45 mins by Indo1-AM dye based fluorescence assay relative to AVP; format: functional, cell-based
Target sequence in this assay (P37288 whole entry, looked up): as the sequence (P37288 whole entry) above

Vasopressin V1a receptor [15] = target: T6, Vasopressin V1a receptor; experiment: Antagonist activity at human V1A receptor expressed in HEK cells assessed as inhibition of AVP-induced intracellular calcium flux incubated for 45 mins by Indo1-AM dye based fluorescence assay relative to AVP; format: functional, cell-based
Target sequence in this assay (P37288 whole entry): as above

Oxytocin receptor [16] = target: T7, Oxytocin receptor (Homo sapiens, UniProt P30559); experiment: Displacement of DY647 from SNAP-tagged OTR receptor (unknown origin) expressed in HEK293 cells by TR-FRET assay; format: cell-based
T7 sequence (P30559 whole entry): T3 sequence (whole entry)

[17] = target: T3, Oxytocin receptor (Homo sapiens); experiment: Agonist activity at human OTR expressed in HEK cells assessed as increase in intracellular calcium flux at 1 uM incubated for 45 mins by Indo1-AM dye based fluorescence assay relative to OT; format: functional, cell-based
Oxytocin receptor [18] = target: T7, Oxytocin receptor; experiment: Antagonist activity at human OTR expressed in HEK cells assessed as inhibition of OT-induced intracellular calcium flux incubated for 45 mins by Indo1-AM dye based fluorescence assay; format: functional, cell-based
Vasopressin V1a receptor [19] = target: T6, Vasopressin V1a receptor; experiment: Displacement of [3H]-AVP from human V1A receptor expressed in CHO cell membranes by radioligand binding assay
Target sequence in this assay (P37288 whole entry): as above

Vasopressin V2 receptor [20] = target: T2, Vasopressin V2 receptor; experiment: Displacement of [3H]-AVP from human V2 receptor expressed in CHO cell membranes by radioligand binding assay
Oxytocin receptor [21] = target: T7, Oxytocin receptor; experiment: Displacement of [3H]-AVP from human OXR receptor expressed in CHO cell membranes by radioligand binding assay
Vasopressin V2 receptor [22] = target: T2, Vasopressin V2 receptor; experiment: Antagonist activity at human V2 receptor expressed in CHO cells assessed as inhibition of AVP-induced cAMP accumulation by cAMP dynamic 2 assay; format: functional, cell-based
[23] = target: T3, Oxytocin receptor (Homo sapiens); experiment: Antagonist activity at human OTR receptor expressed in CHO cells assessed as inhibition of OT-induced myo-inositol 1-phosphate accumulation by IP-One assay; format: functional, cell-based
[24] = target: T3, Oxytocin receptor (Homo sapiens); experiment: Agonist activity at human OTR receptor expressed in CHO cells assessed as increase in myo-inositol 1-phosphate accumulation at 1 uM by IP-One assay relative to OT; format: functional, cell-based
Vasopressin V1a receptor [25] = target: T6, Vasopressin V1a receptor; experiment: Agonist activity at human V1A receptor expressed in CHO cells assessed as increase in myo-inositol 1-phosphate accumulation at 1 uM by IP-One assay relative to AVP; format: functional, cell-based
Target sequence in this assay (P37288 whole entry, looked up): as the sequence (P37288 whole entry) above

Vasopressin V1a receptor [26] = target: T6, Vasopressin V1a receptor
Target sequence in this assay (P37288 whole entry): as above
Description: Agonist activity at human V1a receptor expressed in HEK293FT cells assessed as stimulation of calcium release by Aequorin based assay

Vasopressin V1a receptor [27] = target: T6, Vasopressin V1a receptor; remark: listed apart in the source
Target sequence in this assay (P37288 whole entry): as above
Description: Agonist activity at human V1a receptor expressed in HEK293FT cells incubated for 30 mins by beta-arrestin recruitment assay

Vasopressin V1b receptor [28] = target: T1, Vasopressin V1b receptor
Description: Agonist activity at human V1b receptor expressed in HEK293FT cells incubated for 30 mins by beta-arrestin recruitment assay

Vasopressin V1a receptor [29] = target: T6, Vasopressin V1a receptor; experiment: Antagonist activity at human V1A receptor expressed in CHO cells assessed as inhibition of AVP-induced myo-inositol 1-phosphate accumulation by IP-One assay; format: functional, cell-based
Target sequence in this assay (P37288 whole entry, looked up): as the sequence (P37288 whole entry) above

Vasopressin V2 receptor [30] = target: T2, Vasopressin V2 receptor; experiment: Agonist activity at human V2 receptor expressed in CHO cells assessed as increase in cAMP accumulation by cAMP dynamic 2 assay; format: functional, cell-based
Homo sapiens [31] = species on record: Homo sapiens; experiment: Selectivity for human V1a receptor over human V2 receptor
Homo sapiens [32] = species on record: Homo sapiens; experiment: Selectivity for human OTR receptor over human V2 receptor

T2 sequence (P30518 whole entry): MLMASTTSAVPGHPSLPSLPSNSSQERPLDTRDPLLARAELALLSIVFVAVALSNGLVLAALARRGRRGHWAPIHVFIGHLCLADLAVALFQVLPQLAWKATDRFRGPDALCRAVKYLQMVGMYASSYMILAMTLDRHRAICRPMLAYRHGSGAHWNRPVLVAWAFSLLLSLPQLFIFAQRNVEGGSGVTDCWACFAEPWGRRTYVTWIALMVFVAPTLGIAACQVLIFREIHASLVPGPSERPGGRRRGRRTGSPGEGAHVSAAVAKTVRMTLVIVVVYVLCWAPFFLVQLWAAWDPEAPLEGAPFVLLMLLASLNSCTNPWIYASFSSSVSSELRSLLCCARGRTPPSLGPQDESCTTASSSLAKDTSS

Ki (Vasopressin V1b receptor [1]): 1000 to 5800 nM
Ki (Vasopressin V2 receptor [2]): 58.4 to 1000 nM
Ki (Vasopressin V2 receptor [3]): > 1000 nM
Emax [4]: 40%
inhibition [5]: 5 to 10%
solubility thermodynamic [6]: 5 mM (≈ 2910 µg/mL)
Emax [7]: 70%
EC50 (Oxytocin receptor [8]): 78 nM
Emax [9]: 86%
EC50 (Vasopressin V2 receptor [10]): 2300 nM
Emax [11]: 84%
Emax [12]: 87.1%
SMILES: Cc1cc(C(=O)N2Cc3cnn(C)c3Nc3ccccc32)ccc1CNC(=O)N1CCN(Cc2cc(O)cc(O)c2)CC1

Ki (Vasopressin V1a receptor [13]): 82 nM
Emax (Vasopressin V1a receptor [14]): 5 to 10%
IC50 (Vasopressin V1a receptor [15]): 9 nM
Ki (Vasopressin V2 receptor [3]): > 1000 nM
Ki (Oxytocin receptor [16]): 61 nM
Emax [17]: 5 to 10%
IC50 (Oxytocin receptor [18]): 600 nM
SMILES: Cc1cc(C(=O)N2Cc3cnn(C)c3Nc3ccccc32)ccc1CNC(=O)NCC(=S)N(C)C

Ki (Vasopressin V1a receptor [13]): > 1000 nM
Emax (Vasopressin V1a receptor [14]): 5 to 10%
IC50 (Vasopressin V1a receptor [15]): 50 nM
Ki (Vasopressin V2 receptor [3]): > 1000 nM
Ki (Oxytocin receptor [16]): 417 nM
Emax [17]: 5 to 10%
IC50 (Oxytocin receptor [18]): 775 nM
SMILES: Cc1cc(C(=O)N2Cc3cnn(C)c3Nc3ccccc32)ccc1CNC(=O)NCC(=O)N(C)C

Ki (Vasopressin V1a receptor [19]): 34 nM
Ki (Vasopressin V2 receptor [20]): 282 nM
Ki (Oxytocin receptor [21]): 84 nM
Kact (Vasopressin V2 receptor [30]): 13 nM
Kinact (Vasopressin V1a receptor [29]): 48 nM
Kinact [23]: 112 nM
Emax [24]: < 10%
Emax (Vasopressin V1a receptor [25]): < 10%
Selectivity ratio (Homo sapiens [31]): 0.12
Selectivity ratio (Homo sapiens [32]): 0.3
SMILES: Cc1ccn(-c2ccc(C(=O)N3CCCCc4ccccc43)cc2)n1

Second part, the compound before the results:

SMILES: O=C(c1ccc(-c2ccccc2)cc1)N1CCCCc2ccccc21
Ki (Vasopressin V1a receptor [19]): 2.28 nM
Ki (Vasopressin V2 receptor [20]): 78 nM
Ki (Oxytocin receptor [21]): 10.4 nM
Kinact (Vasopressin V2 receptor [22]): 132 nM
Kinact [23]: 42 nM
Emax [24]: < 10%
Emax (Vasopressin V1a receptor [25]): < 10%

SMILES: CC[C@H](C)[C@@H]1NC(=O)[C@H](Cc2ccc(OC)cc2)NC(=O)CCCSC[C@@H](C(=O)N2CCC[C@H]2C(=O)N[C@@H](CC(C)C)C(=O)NCC(N)=O)NC(=O)[C@H](CC(N)=O)NC(=O)[C@H](CCC(N)=O)NC1=O [CARBETOCIN] (Y(Me)IQNCPLG-NH2; linker N-5 via X1)
EC50 (Oxytocin receptor [8]): 62 nM
Emax [9]: 85%
EC50 (Vasopressin V1a receptor [26]): Not Active
IC50 (Vasopressin V1a receptor [27]): Not Active
EC50 (Vasopressin V1b receptor [28]): Not Active

SMILES: O=C(c1ccc(-c2cccnc2)cc1)N1CCCCc2ccccc21
Ki (Vasopressin V1a receptor [19]): 67 nM
Ki (Vasopressin V2 receptor [20]): 233 nM
Ki (Oxytocin receptor [21]): 150 nM
Kinact (Vasopressin V1a receptor [29]): 51 nM
Kinact (Vasopressin V2 receptor [22]): 78 nM
Kinact [23]: 227 nM
Emax [24]: < 10%
Emax (Vasopressin V1a receptor [25]): < 10%
